The target in one assay is T1, Pim-3 (Homo sapiens, UniProt Q86V86).
T1 construct: His6-labelled recombinant full-length human Pim-1, Pim-2 or Pim-3 protein; His6; made in house
The experiment in a line: TR-FRET assay, Pim-3 kinase (phosphorylation of Bad Ser112). Format: biochemical. The following applies: TR-FRET; ATP 40 μM; read-out: IC50 Pim3. The procedure, abridged: (§1)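 Recombinant His6-tagged full-length human Pim-1, Pim-2 or Pim-3 phosphorylates His6-tagged full-length human Bad at 40 μM ATP (apparent KM). Phospho-Ser112 is detected by TR-FRET between Eu-labelled anti-phosphoBad and APC-labelled anti-His6 (665/615 nm ratio); 10-point duplicate series, top typically 30 μM, IC50 from 4-parameter logistic fit.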

The target of another assay is T2, Pim-1 (Homo sapiens, UniProt P11309).
T2 construct: His6-labelled recombinant full-length human Pim-1, Pim-2 or Pim-3 protein; His6; made in house
Briefly: TR-FRET assay, Pim-1 kinase (phosphorylation of Bad Ser112). The following applies: TR-FRET; ATP 40 μM; read-out: IC50 Pim1. Format: biochemical. The procedure, abridged: as §1

The next assay concerns the target T3, Pim-2 (Homo sapiens, UniProt Q9P1W9).
T3 construct: His6-labelled recombinant full-length human Pim-1, Pim-2 or Pim-3 protein; His6; made in house
The experiment in a line: TR-FRET assay, Pim-2 kinase (phosphorylation of Bad Ser112). It is filed as biochemical. The following applies: TR-FRET; ATP 40 μM; read-out: IC50 Pim2. The procedure, abridged:
as §1

For another assay, the target named is PLK1 (Homo sapiens, UniProt P53350). The experiment in a line: PLK1 biochemical inhibition.

Some results are limits rather than exact numbers.

T3 sequence (Q9P1W9 whole entry): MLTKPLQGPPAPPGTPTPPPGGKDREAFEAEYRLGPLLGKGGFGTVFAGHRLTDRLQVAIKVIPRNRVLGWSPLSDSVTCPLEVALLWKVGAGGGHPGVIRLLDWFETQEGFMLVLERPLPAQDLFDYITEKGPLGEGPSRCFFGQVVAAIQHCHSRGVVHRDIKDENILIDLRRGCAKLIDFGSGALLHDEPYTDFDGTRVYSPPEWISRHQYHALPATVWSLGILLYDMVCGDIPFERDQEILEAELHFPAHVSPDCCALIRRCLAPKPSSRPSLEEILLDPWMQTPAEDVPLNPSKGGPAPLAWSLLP
Chain of PLK1 (P53350 whole entry, species assumed): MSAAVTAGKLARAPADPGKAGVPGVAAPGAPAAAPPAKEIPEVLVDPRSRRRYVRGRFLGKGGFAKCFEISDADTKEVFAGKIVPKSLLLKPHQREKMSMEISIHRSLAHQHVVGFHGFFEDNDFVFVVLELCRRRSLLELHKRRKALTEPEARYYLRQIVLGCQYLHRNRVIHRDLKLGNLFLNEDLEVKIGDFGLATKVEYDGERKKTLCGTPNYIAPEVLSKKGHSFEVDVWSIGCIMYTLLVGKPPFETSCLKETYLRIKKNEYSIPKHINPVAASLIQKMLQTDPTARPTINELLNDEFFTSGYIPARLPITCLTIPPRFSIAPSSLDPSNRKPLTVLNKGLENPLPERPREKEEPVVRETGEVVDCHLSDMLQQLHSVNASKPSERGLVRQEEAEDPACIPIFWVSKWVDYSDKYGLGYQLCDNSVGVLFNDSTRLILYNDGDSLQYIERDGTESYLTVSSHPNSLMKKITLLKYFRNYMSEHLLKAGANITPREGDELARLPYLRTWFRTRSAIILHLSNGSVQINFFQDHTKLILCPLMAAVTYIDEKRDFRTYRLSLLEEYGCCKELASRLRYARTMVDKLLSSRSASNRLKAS
T2 sequence (P11309 whole entry): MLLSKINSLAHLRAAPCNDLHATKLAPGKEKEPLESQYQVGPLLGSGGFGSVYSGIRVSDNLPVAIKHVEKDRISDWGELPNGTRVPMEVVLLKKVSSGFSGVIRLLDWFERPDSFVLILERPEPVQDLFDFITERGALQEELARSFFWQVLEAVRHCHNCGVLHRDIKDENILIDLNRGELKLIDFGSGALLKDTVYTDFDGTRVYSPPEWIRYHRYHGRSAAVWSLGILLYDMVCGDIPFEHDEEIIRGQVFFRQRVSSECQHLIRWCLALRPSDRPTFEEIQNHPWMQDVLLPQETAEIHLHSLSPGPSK

With `Fc1cnc2[nH]c3cnc(-c4cccnc4)cc3c2c1C1CC1` [Example 32, 4-cyclopropyl-3-fluoro-6-(pyrid-3-yl)-9H-pyrrolo[2,3-b:5,4-c′]dipyridine], the IC50 at Pim-3 was 1 to 100 nM; on Pim-1 it was 1 to 100 nM; at Pim-2 it was 1000 to 5000 nM; on PLK1, 1 to 100 nM.

Consider `O=C(c1ccccc1)c1c(F)cnc2[nH]c3cnc(-c4cccnc4)cc3c12` [Example 34, [3-fluoro-6-(pyrid-3-yl)-9H-pyrrolo[2,3-b:5,4-c′]-dipyrid-4-yl](phenyl)-methanone], for which the half-inhibitory concentration (IC50) is 1000 to 5000 nM at Pim-3, 1 to 100 nM on Pim-1, greater than 5000 nM at Pim-2 and 100 to 1000 nM at PLK1.

As for `O=C(c1c(F)cnc2[nH]c3cnc(-c4cccnc4)cc3c12)N1CCOCC1` [Example 36, [3-fluoro-6-(pyrid-3-yl)-9H-pyrrolo[2,3-b:5,4-c′]-dipyrid-4-yl](morpholin-4-yl)methanone], the 50% inhibitory concentration (IC50) was 1000 to 5000 nM on Pim-3, 100 to 1000 nM at Pim-1, greater than 5000 nM on Pim-2 and 1000 to 5000 nM at PLK1.

Regarding `c1cnc2[nH]c3cnc(-c4ccoc4)cc3c2c1` [Example 40, 6-furan-3-yl-9H-pyrrolo[2,3-b:5,4-c′]dipyridine], the IC50 at Pim-3 is 1000 to 5000 nM; at Pim-1, 100 to 1000 nM; at Pim-2, greater than 5000 nM; at PLK1, greater than 5000 nM.

As for `O=S(=O)(CCl)Nc1ccc(-c2c(F)cnc3[nH]c4cnc(-c5cccnc5)cc4c23)cc1` [Example 45, 1-chloro-N-{4-[3-fluoro-6-(pyrid-3-yl)-9H-pyrrolo[2,3-b:5,4-c′]dipyrid-4-yl]-phenyl}-methanesulfonamide], the half-inhibitory concentration (IC50) was in the range of 1 to 100 nM at Pim-3, 1 to 100 nM at Pim-1, 1000 to 5000 nM on Pim-2 and 1 to 100 nM against PLK1.

As for `COc1cc(-c2c(F)cnc3[nH]c4cnc(-c5cccnc5)cc4c23)ccc1NS(C)(=O)=O` [Example 47, N-{-4-[3-fluoro-6-(pyrid-3-yl)-9H-pyrrolo[2,3-b:5,4-c′]dipyrid-4-yl]-2-methoxyphenyl}-methanesulfonamide], the concentration for half-maximal inhibition (IC50) at Pim-3 was in the range of 1 to 100 nM; at Pim-1, 1 to 100 nM; at Pim-2 it was 1000 to 5000 nM; against PLK1, 100 to 1000 nM.

In the case of `CN(c1ccc(-c2c(F)cnc3[nH]c4cnc(-c5cccnc5)cc4c23)cc1)S(C)(=O)=O` [Example 48, N-{-4-[3-fluoro-6-(pyrid-3-yl)-9H-pyrrolo[2,3-b:5,4-c′]dipyrid-4-yl]-phenyl}-N-methyl-methanesulfonamide], the concentration for half-maximal inhibition (IC50) on Pim-3 lay within 1 to 100 nM; at Pim-1, 1 to 100 nM; at Pim-2, 100 to 1000 nM; against PLK1, 100 to 1000 nM.

Regarding `CS(=O)(=O)NCc1cccc(-c2c(F)cnc3[nH]c4cnc(-c5cccnc5)cc4c23)c1` [Example 62, N-{3-[3-fluoro-6-(pyrid-3-yl)-9H-pyrrolo[2,3-b:5,4-c′]-dipyrid-4-yl]benzyl}-methanesulfonamide], the IC50 is 1 to 100 nM at Pim-3, 1 to 100 nM at Pim-1, 1000 to 5000 nM at Pim-2 and 1 to 100 nM against PLK1.

Consider `COc1ccccc1-c1c(F)cnc2[nH]c3cnc(-c4cccnc4)cc3c12` [Example 63, 3-fluoro-4-(2-methoxyphenyl)-6-(pyrid-3-yl)-9H-pyrrolo[2,3-b:5,4-c′]-dipyridine], for which the 50% inhibitory concentration (IC50) is 100 to 1000 nM on Pim-3, 1 to 100 nM on Pim-1, greater than 5000 nM at Pim-2 and 1 to 100 nM on PLK1.

Regarding `CS(=O)(=O)NCc1ccc(-c2c(F)cnc3[nH]c4cnc(-c5cccnc5)cc4c23)cc1` [Example 66, N-{4-[3-fluoro-6-(pyrid-3-yl)-9H-pynolo[2,3-b:5,4-c′]-dipyrid-4-yl]benzyl}-methanesulfonamide], the half-inhibitory concentration (IC50) at Pim-3 is 1 to 100 nM; at Pim-1, 1 to 100 nM; on Pim-2, 100 to 1000 nM; against PLK1, 1 to 100 nM.

Turning to `CCCN(CCC)CCCN1CCN(c2c(F)cnc3[nH]c4cnc(-c5cccnc5)cc4c23)CC1` [Example 88, 3-{4-[3-fluoro-6-(pyrid-3-yl)-9H-pyrrolo[2,3-b:5,4-c′]dipyrid-4-yl]piperazin-1-yl}-N,N-dipropylpropan-1-amine], the IC50 on Pim-3 fell in the range of 1 to 100 nM; at Pim-1 it was 1 to 100 nM; on Pim-2, 100 to 1000 nM; against PLK1, 1000 to 5000 nM.

On to `CCN(CC)CCCN1CCN(c2c(F)cnc3[nH]c4cnc(-c5cccnc5)cc4c23)CC1` [Example 89, N,N-diethyl-3-{4-[3-fluoro-6-(pyrid-3-yl)-9H-pyrrolo[2,3-b:5,4-c′]dipyrid-4-yl]piperazin-1-yl}propan-1-amine], for which the half-inhibitory concentration (IC50) was in the range of 100 to 1000 nM on Pim-3, 1 to 100 nM on Pim-1, 1000 to 5000 nM on Pim-2 and 1000 to 5000 nM at PLK1.

As for `Oc1ccc(-c2c(F)cnc3[nH]c4cnc(-c5cccnc5)cc4c23)cc1` [Example 95, 4-[3-fluoro-6-(pyrid-3-yl)-9H-pyrrolo[2,3-b:5,4-c′]dipyrid-4-yl]phenol], the IC50 at Pim-3 was 100 to 1000 nM; at Pim-1, 1 to 100 nM; at Pim-2 it was 100 to 1000 nM; against PLK1, 1 to 100 nM.

Take `Fc1cnc2[nH]c3cnc(-c4cccnc4)cc3c2c1-c1ccc(OCCN2CCOCC2)cc1` [Example 99, 3-fluoro-4-{4-[2-(morpholin-4-yl)ethoxy]phenyl}-6-(pyrid-3-yl)-9H-pyrrolo[2,3-b:5,4-c′]dipyridine]: the concentration for half-maximal inhibition (IC50) on Pim-3 is 100 to 1000 nM; at Pim-1, 1 to 100 nM; at Pim-2, 1000 to 5000 nM; against PLK1, 100 to 1000 nM.

For `OC(COc1ccc(-c2c(F)cnc3[nH]c4cnc(-c5cccnc5)cc4c23)cc1)CN1CCOCC1` (stereo not shown) [Example 101, 1-{4-[3-fluoro-6-(pyrid-3-yl)-9H-pyrrolo[2,3-b:5,4-c′]dipyrid-4-yl]phenoxy}-3-(morpholin-4-yl)propan-2-ol], the IC50 at Pim-3 is 1 to 100 nM; at Pim-1 it was 1 to 100 nM; on Pim-2, 100 to 1000 nM; against PLK1 it was 1 to 100 nM.

On to `CCCNc1cnc2[nH]c3cnc(-c4cccnc4)cc3c2c1` [Example 110, N-propyl-6-(pyrid-3-yl)-9H-pyrrolo[2,3-b:5,4-c′]dipyrid-3-amine], for which the IC50 was 100 to 1000 nM at Pim-3, 1 to 100 nM on Pim-1, 1000 to 5000 nM on Pim-2 and 1000 to 5000 nM on PLK1.

`CCOc1cnc2[nH]c3cnc(-c4cccnc4)cc3c2c1` [Example 112, 3-ethoxy-6-(pyrid-3-yl)-9H-pyrrolo[2,3-b:5,4-c′]dipyridine]: the 50% inhibitory concentration (IC50) at Pim-3 is 1 to 100 nM; at Pim-1, 1 to 100 nM; on Pim-2, 100 to 1000 nM; on PLK1 it was 100 to 1000 nM.

In the case of `COCCOc1cnc2[nH]c3cnc(-c4cccnc4)cc3c2c1` [Example 113, 3-(2-methoxyethoxy)-6-(pyrid-3-yl)-9H-pyrrolo[2,3-b:5,4-c′]dipyridine], the IC50 is 1 to 100 nM on Pim-3, 1 to 100 nM on Pim-1, 1000 to 5000 nM at Pim-2 and 1000 to 5000 nM on PLK1.

Take `c1cncc(-c2cc3c(cn2)[nH]c2ncc(-c4cnn(CCN5CCOCC5)c4)cc23)c1` [Example 115, 3-{1-[2-(morpholin-4-yl)ethyl]-1H-pyrazol-4-yl}-6-(pyrid-3-yl)-9H-pyrrolo[2,3-b:5,4-c′]dipyridine]: the IC50 at Pim-3 lay in the range of 1 to 100 nM; on Pim-1, 1 to 100 nM; at Pim-2 it was 1000 to 5000 nM; against PLK1, 1000 to 5000 nM.

Consider `Cn1ccc(-c2cnc3[nH]c4cnc(-c5cccnc5)cc4c3c2)n1` [Example 116, 3-(1-methyl-1H-pyrazol-3-yl)-6-(pyrid-3-yl)-9H-pyrrolo[2,3-b:5,4-c′]dipyridine], for which the IC50 on Pim-3 was 1 to 100 nM; on Pim-1, 1 to 100 nM; at Pim-2 it was greater than 5000 nM; on PLK1 it was 1000 to 5000 nM.

With `OCc1cccc(-c2cnc3[nH]c4cnc(-c5cccnc5)cc4c3c2)c1` [Example 118, {3-[6-(pyrid-3-yl)-9H-pyrrolo-[2,3-b:5,4-c′]-dipyrid-3-yl]-phenyl}methanol], the IC50 on Pim-3 lay in the range of 1 to 100 nM; on Pim-1, 1 to 100 nM; on Pim-2, 100 to 1000 nM; against PLK1 it was 100 to 1000 nM.

On to `c1cncc(-c2cc3c(cn2)[nH]c2ncc(-c4ccc(N5CCOCC5)cc4)cc23)c1` [Example 121, 3-[4-(morpholin-4-yl)phenyl]-6-(pyrid-3-yl)-9H-pyrrolo[2,3-b:5,4-c′]-dipyridine], for which the half-inhibitory concentration (IC50) on Pim-3 was 1 to 100 nM; at Pim-1, 1 to 100 nM; at Pim-2 it was 1000 to 5000 nM; against PLK1 it was 1000 to 5000 nM.

Take `CN1CCN(CCCn2cc(-c3cnc4[nH]c5cnc(-c6cccnc6)cc5c4c3)cn2)CC1` [Example 124, 3-{1-[3-(4-methyl-piperazin-1-yl)propyl]-1H-pyrazol-4-yl}-6-(pyrid-3-yl)-9H-pyrrolo[2,3-b:5,4-c′]-dipyridine]: the half-maximal inhibitory concentration (IC50) at Pim-3 was 1 to 100 nM; at Pim-1 it was 1 to 100 nM; at Pim-2 it was 100 to 1000 nM; on PLK1, 100 to 1000 nM.

As to `c1cncc(-c2cc3c(cn2)[nH]c2ncc(-c4cn[nH]c4)cc23)c1` [Example 126, 3-(1H-pyrazol-4-yl)-6-(pyrid-3-yl)-9H-pyrrolo-[2,3-b:5,4-c′]-dipyridine], the IC50 is 100 to 1000 nM on Pim-3, 1 to 100 nM at Pim-1, greater than 5000 nM on Pim-2 and 1000 to 5000 nM at PLK1.

Take `COc1cnc2[nH]c3cnc(-c4cnn(CC(=O)NCCN(C)C)c4)cc3c2c1` [Example 165, N-[2-(dimethylamino)ethyl]-2-[4-(3-methoxy-9H-pyrrolo[2,3-b:5,4-c′]dipyrid-6-yl)-1H-pyrazol-1-yl]acetamide]: the IC50 at Pim-3 is 100 to 1000 nM; on Pim-1 it was 100 to 1000 nM; on Pim-2, greater than 5000 nM; at PLK1 it was greater than 5000 nM.

The record behind these values is patent US20110178053A1, “AZACARBOLINE DERIVATIVES, PREPARATION METHOD THEREOF AND THERAPEUTIC USE OF SAME” (SANOFI-AVENTIS, priority 2008, published 2011).
